{"source": "patent US7851473B2", "about": "“Amide compound” (Takeda Pharmaceutical Company Limited, priority 2004, dated 2010)", "system": "rat local cerebral ischemic model", "assay": "Cerebroprotective effect in a rat cerebral ischemic model (middle cerebral artery occlusion)", "format": "in vivo", "conditions": "SD rats, 120 minutes occlusion; intravenous, immediately after reperfusion and after 2, 4 and 6 hours; measured two days after ischemia; p<0.05", "experimental": "The compound obtained in Example 1 as an FAAH inhibitory agent (hereinafter, referred to as Compound A) was administered intravenously to a rat local cerebral ischemic model, and the inhibitory effect of the compound on cerebral infarct volume was examined. For the cerebral ischemic model, 8 weeks-old male SD rats (CLEA Japan, Inc.) were used to generate a middle cerebral artery occlusion model (Kiyota, et al., Experimental Brain Research, 95, 388-396 (1993)). That is, under halothane anesthesia, a silicone-coated plug was inserted into the rat from the right common carotid artery to the origin of middle cerebral artery to induce occlusion for 120 minutes. Compound A of Example was intravenously administered immediately after reperfusion and after 2, 4 and 6 hours, respectively. Two days after the ischemia treatment, the rat brain was extracted, 2 mm-thick slices of anterior maxillary section were prepared therefrom, and the cerebral infarct volume was measured from their TTC-stained images by image analysis.", "data": [{"smiles": "O=C(Nc1noc2ccccc12)N1CCN(c2nc(-c3ccccc3)ns2)CC1", "note": "[Compound A]", "values": [{"measurement": "cerebral infarct volume compared with the solvent-administered group", "result": "significantly smaller"}]}]}
